In patent US4254049A, “Substituted phenyl-2-cyano-2-alkenoic acid esters” (American Cyanamid Company, priority 1979, dated 1981):

Experiments:
[1] = test system: adjuvant induced arthritis; test: Adjuvant induced arthritis in rats (chronic inflammation accompanied by joint destruction); type: in vivo, rat (Royal Hart, Wistar strain); details: oral; for Dead/Treated At 21 Days: once daily days 0 through 13; for % Inhibition of Swelling (Primary lesion), Day 14: * significantly different from adjuvant controls
Experimental: Groups of three Royal Hart, Wistar strain rats weighing 200±10 grams each were injected intradermally in the right hind paw with Freund's adjuvant (dried human tubercle bacilli in a mineral oil vehicle) at a dose of 2 mg./kg. of body weight. Test compound was administered orally in a 1.5% starch vehicle at various doses once daily on days 0 through 13 post challenge. Control rats were treated in a similar manner, but given only starch vehicle. On the 14th and 21st day post challenge the diameter of the injected paw (primary lesion) was measured by micrometer caliper. The volume of inflamed paws were estimated from these measurements and the results are expressed as percent inhibition of swelling as compared to controls. At the same time, the other inflamed sites, such as ears, paws and tail (secondary lesions) were observed and each rat was graded as to degree of inflammation and swelling present. The grading is based on a scale of 0 to 24, where 0 represents a complete absence of induced arthritic nodules and 24 represents the maximum degree of inflammation. The mean grade for each treated group is calculated and the effects of each compound are expressed as percent inhibition of the control grade. Table I records the results of tests conducted with typical compounds of the present invention. These compounds appear to suppress the progression of the arthritis and associated joint deterioration.

[2] = test system: articular cartilage breakdown by arthritic synovial tissue; test: Synovium-cartilage test (hexoseamine/hydroxyproline ratio of cartilage cultured with arthritic synovium); type: cell-based, rabbit (New Zealand); details: Oryctolagus cuniculus; 10 mcg./ml.; 48 hours at 37° C.; mean of 3 or 4 tests; active if average greater than 50%; read-out: Mean % Inhibition (suppression of cartilage breakdown)
Experimental: The compounds of the invention have been tested by the synovium-cartilage test which is a modification of the method described by Dumonde, D. C. and Glynn, L. E., The Production of Arthritis in Rabbits by an Immunological Reaction to Fibrin, Brit. J. Exp. Pathol., 43, 373 (1962).
Male, New Zealand rabbits, weighing 1.6-3.0 kg. were used. The rabbits were housed in individual cages and given food and water ad libitum. The rabbits were sensitized to bovine serum albumin (BSA) by injection of 20 mg./kg. BSA in complete Freund's adjuvant. The emulsion was injected subcutaneously into multiple sites on the back. Total injection volume equaled one […]. of body weight. Between 18 and 21 days following immunization, the rabbits were challenged with an intraarticular injection of 5 mg. BSA into the right knee joint. Unanesthetized animals were restrained on their backs, and a 20-gauge, one-inch needle, with a 5 ml. syringe, was introduced into the joint and synovial fluid aspirated to determine that the synovium had been penetrated. The needle was then left in place for injection of the antigen. A 0.5 ml. portion of 10 mg./ml. BSA in sterile saline was injected into the synovial sac. The rabbits received an additional five intraarticular injections of 5 mg. BSA into the right knee at intervals of 12-16 days. Following the sixth injection the rabbits were sacrificed by an intracardiac injection of 5 ml. of a saturated solution of potassium chloride. The right knee was shaved. A longitudinal incision was made over the patellar ligament and the skin reflected under sterile conditions. The patellar ligament was cut transversely and reflected. Fascia and capsular tissue were trimmed from the lateral and medial aspects of the knee exposing the synovial membrane. The membrane was grasped with forceps, stretched laterally and then excised in a single piece on each side of the knee. The infrapatellar fat pad was removed and the joint space widened by cutting the anterior attachments of the menisci and severing the collateral cruciate ligaments. The femur and tibia were then separated and the menisci excised along with sufficient amounts of synovial tissue from the popliteal area adhering to the menisci. The tissues were immediately placed in a sterile Petri dish containing tissue culture medium composed of MEM (Earle's salts) without sodium bicarbonate,with 25 mM Hepes buffer, pH adjusted to 7.34-7.37, and antibiotics (streptomycin and neomycin, 100 units/ml.). Ten percent normal rabbit serum (NRS) was added. The tissues were rinsed three times in fresh medium plus 10% NRS, then cut into pieces of 20-30 mg.
Articular cartilage was obtained from the knees of normal, young rabbits, weighing 1.0 to 1.5 kg. The knees were shaved, the rabbits sacrificed and the joint exposed as described above. […]

arthritic paw swelling = details: result in words; cited from earlier work

## C/C(O)=C(\C#N)C(=O)Oc1cccc(Cl)c1Cl [2-Cyano-3-hydroxycrotonic acid, 2,3-dichlorophenyl ester]
[1]; 50 mg./kg. body weight
  Dead/Treated At 21 Days: 11/24
[1]; 50 mg./kg.
  Mean Weight Gain, Day 14: 36 grams
  % Inhibition of Swelling (Primary lesion), Day 14: 41%
  % Inhibition of Swelling (Primary lesion), Day 21: 0%
  Mean Weight Gain, Day 21: 32 grams

## C/C(O)=C(\C#N)C(=O)Oc1ccccc1Cl [2-Cyano-3-hydroxycrotonic acid, o-chlorophenyl ester]
[1]; 50 mg./kg. body weight
  Dead/Treated At 21 Days: 0/9
[1]; 50 mg./kg.
  Mean Weight Gain, Day 14: 25 grams
  % Inhibition of Swelling (Primary lesion), Day 14: 57%
  % Inhibition of Swelling (Primary lesion), Day 21: 35%
  Mean Weight Gain, Day 21: 29 grams

## C/C(O)=C(\C#N)C(=O)Oc1ccccc1F [2-Cyano-3-hydroxycrotonic acid, o-fluorophenyl ester]
[2]
  inhibition at 10 µg/mL: 52.3%

## COc1ccccc1OC(=O)/C(C#N)=C(/C)O [2-Cyano-3-hydroxycrotonic acid, o-methoxyphenyl ester]
[2]
  inhibition at 10 µg/mL: 49.3%

## C/C(O)=C(\C#N)C(=O)Oc1ccc(Cl)cc1 [2-Cyano-3-hydroxycrotonic acid, p-chlorophenyl ester]
[1]; 25 mg./kg. body weight
  Dead/Treated At 21 Days: 2/18
[1]; 25 mg./kg.
  Mean Weight Gain, Day 14: 60 grams
  % Inhibition of Swelling (Primary lesion), Day 14: 45%
  % Inhibition of Swelling (Primary lesion), Day 21: 0%
  Mean Weight Gain, Day 21: 46 grams

## COc1ccc(OC(=O)/C(C#N)=C(/C)O)cc1 [2-Cyano-3-hydroxycrotonic acid, p-methoxyphenyl ester]
[2]
  inhibition at 10 µg/mL: 58.4%

## C/C(O)=C(\C#N)C(=O)Oc1ccc(C)cc1 [2-Cyano-3-hydroxycrotonic acid, p-tolyl ester]
[2]
  inhibition at 10 µg/mL: 50.3%

## COc1ccc2c(c1)c(CC(=O)O)c(C)n2C(=O)c1ccc(Cl)cc1 [indomethacin]
Arthritic paw swelling
  arthritic paw swelling: inhibit arthritic paw swelling
  joint and bone deterioration: prevent joint and bone deterioration
